{
  "source": "patent US10085955B2",
  "about": "“Methods and compositions for treatment of demyelinating diseases” (Pathologica LLC, priority 2013, dated 2018)",
  "key": {"[1]": {"tested_on": "MOG-induced experimental autoimmune encephalomyelitis (EAE)", "assay": "First MOG EAE protocol (murine multiple sclerosis model)", "assay_type": "in vivo, C57BL/6 mice", "from_the_text": "An experimental murine model of multiple sclerosis employing a myelin oligodendrocyte glycoprotein (MOG) peptide to induce experimental autoimmune encephalomyelitis (EAE) was employed to determine the efficacy of MGBG in preventing and treating that disease. Because of its many similarities to MS, EAE is commonly used to study pathogenesis of autoimmunity, CNS inflammation, demyelination, cell trafficking, and tolerance induction. EAE is characterized by paralysis (in some models the paralysis is remitting-relapsing), CNS inflammation and demyelination. EAE is mediated primarily by dendritic cells, myelin-specific T cells (e.g. Th1 and Th17), and M1 macrophages. B cells may also play a role in some models of EAE. Body weight also tracks disease progression. EAE is induced in C57BL/6 mice by immunization with MOG35-55 or MOG1-125 in CFA emulsion followed by administration of pertussis toxin (PTX) in PBS. The emulsion provides antigen which initiates expansion and differentiation of MOG-specific autoimmune T cells. PTX enhances EAE development by providing additional adjuvant and facilitating entrance of autoimmune T cells into the CNS.\nChronic EAE develops in C57BL/6 mice after immunization with an emulsion of MOG35-55/CFA or MOG1-125/CFA followed by injection of pertussis toxin. This model is used to test the potential of compounds to prevent or mitigate EAE disease. It can be run with the compound dosed from the time of immunization (prophylactic treatment), or with the aim of reversing the course of disease and facilitating recovery by dosing the compound from the time of EAE onset (therapeutic treatment). The model uses female C57BL/6 mice of age 10 to 14 weeks at the start of the study. Typically, EAE develops 8-18 days after immunization. EAE development is usually followed for 4 weeks (28 days) after immunization.\nIn prophylactic studies, treatment begins before disease onset, at the time of immunization and group assignment. Mice are assigned to treatment groups in a balanced manner to achieve groups with similar distributions of body weights. Prophylactic studies assess if treatment will affect the course of disease both before and after the first clinical signs of EAE. To compensate for the stress of treatment in prophylactic treatment studies and achieve the target disease severity, EAE may be induced with a higher dose of pertussis toxin than used in therapeutic studies. The dose of pertussis toxin is based on expected stress due to dosing (route, frequency, and formulation of vehicle).\nClinically, EAE progression is scored on a scale of 0 to 5, wherein each score represents the following clinical observations:\nInflammatory foci of approximately 20 cells were counted in each H&E stained section. When inflammatory infiltrates consisted of more than 20 cells, an estimate was made of how many foci of 20 cells were present.\nThe demyelination score represents an estimate of demyelinated area for each section as follows:\nUnless otherwise noted, statistical analysis was performed as follows: disease incidence compared using chi-square test; mean day of EAE onset, change in body weight, and number of apoptotic cells compared using 2-tailed Student's t-test; median day of EAE onset compared using Wilcoxon's survival test; mean maximum score (MMS), end score, and demyelination scores (LFB and H&E) compared using Wilcoxon's non-parametric test.\nTen week old female C57BL/6 mice weighing 18-23 g (Taconic Farms) were divided into four groups: mock immunized (n=3) and three MOG-immunized groups receiving MGBG at 30 mpk BID (as the di-HCl monohydrate with a correction factor of 1.49), fingolimod (FTY720) at 3 mpk QD with a second mock vehicle dose, or 0.9% saline vehicle BID (n=12 each). […]"}, "[2]": {"tested_on": "carrageenan-induced paw edema and hyperalgesia", "assay": "Carrageenan paw test for edema and hyperalgesia", "assay_type": "in vivo, Swiss Webster mice", "from_the_text": "Injection of carrageenan subcutaneously into the hind foot (paw) of a rat or mouse induces robust inflammation and pain. The inflammatory response begins 1-2 hrs post-carrageenan injection and persists for at least five hours following inoculation. In addition, the animal's inflamed hind paw is sensitive to noxious (hyperalgesia) or innocuous (allodynia) stimuli, compared to the contralateral hind paw. Compounds can be evaluated in this model for anti-hyperalgesia and anti-inflammatory activity. […] It is possible that some compounds will affect the inflamed paw and not affect the responses of the contralateral paw.\nEmbodiments of the carrageenan foot edema test are performed with materials, reagents and procedures essentially as described by Winter, et al., (Proc. Soc. Exp. Biol. Med., 111, 544 (1962)). Prophylactic and therapeutic embodiments have been developed, and are known in the art. The animals are evaluated for their responsiveness to noxious (paw pinch, plantar test) or innocuous (cold plate, von Frey filaments) stimuli. In the following protocol, mice were used.\nHealthy young male Swiss Webster mice in which weight variation of the mice will not exceed ±20% of the mean were used for the study. Animals were divided into four groups of forty, and each group was dosed by oral gavage with either MGBG (BID, 12 hours apart at 30 mg/kg in 5 mL/kg normal saline), dexamethasone as positive control (QD, 1 mg/kg in 5 mL/kg 0.5% methylcellulose), or saline vehicle (BID, 5 mL/kg). […]\nImmediately before sub-plantar administration of carrageenan and after 2, 3, 5 and 24 hours post carrageenan, mouse paw volume was measured using the plethysmometer (Ugo Basile). The assessment of edema was expressed as the mean increase in paw volume relative to control.\nPrior to sub-plantar administration of carrageenan and after 0.5, 2, 3, 5, and 24 hours post-carrageenan, the latency of withdrawal response was determined by placing mice on a hot plate analgesia meter with surface temperature maintained at 51° C. […] Paw withdrawal latency is calculated as Δt=right paw withdrawal—left paw withdrawal. […]"}},
  "data": [
    {"smiles": "CC(/C=N/NC(=N)N)=N\\NC(=N)N", "note": "[MGBG, 1,1′ [methylethanediylidene]dinitrilodiguanidine]", "values": [
      {"measurement": "mean clinical score (scale 0 to 5)", "setting": "[1]; first 28-day study, MGBG 30 mpk BID, fingolimod 3 mpk QD, throughout/duration of experiment", "result": "below 1"},
      {"measurement": "body weight, mean percent of baseline (study start)", "setting": "[1]; first study, day 11", "result": "~115", "unit": "%"},
      {"measurement": "body weight, mean percent of baseline (study start)", "setting": "[1]; first study, day 24", "result": "about 108%"},
      {"measurement": "spinal cord histopathology (neuroinflammation, demyelination, apoptosis)", "setting": "[1]; first study, day 28", "result": "reduces histopathological signs of MS"},
      {"measurement": "day first clinical signs became evident", "setting": "[1]; first study, MGBG 30 mpk BID (vehicle day 10)", "result": 15, "unit": "days"},
      {"measurement": "efficacy at lower doses", "setting": "[2]; mice, 3 mg/kg PO BID and 10 mg/kg PO BID", "result": "observed efficacy"},
      {"measurement": "edema and hyperalgesia", "setting": "[2]; mice, MGBG PO BID (30 mg/kg; alternative 3, 10, 30 mg/kg)", "result": "efficacious in reducing edema and hyperalgesia"},
      {"measurement": "top efficacious dose", "setting": "[2]; murine carrageenan-induced paw edema and hyperalgesia models", "result": 30, "unit": "mg/kg PO BID"}
    ]}
  ]
}
